Assay: passive permeability, PAMPA, ADME assay (AID 1508612)
Details: pH 7.4, 30.0 min, 50.0 µM

Papp [×10⁻⁶ cm/s] | SMILES
39.9 | COc1ccc(-c2ccc(Nc3nc(-c4ccncc4)nc4ccccc34)cc2F)cc1F
537 | Oc1cccc(-c2nc(N3CCOCC3)c3oc4ncccc4c3n2)c1
868 | Cc1ccnc(NC(=S)N2CCN(c3ccc(Cl)cc3Cl)CC2)c1
> 1000 | COc1cc(-c2c(C#N)c(N)nc3c2c(C)nn3-c2ccc(F)cc2)ccc1O
< 1 | Cc1c(CN(C)c2cc(C3CC(O)C3)nc(N)n2)[nH]c2ccccc12 (stereo not drawn)
540 | COc1cc(OC)c2c(=O)[nH]c(-c3cc(C)c(OCCO)c(C)c3)nc2c1
< 1 | CCOc1ccc(NC(=O)c2ccc(F)c(S(=O)(=O)N(CC)Cc3ccccc3)c2)cc1
836 | Cc1nn(Cc2ccc(Cl)cc2)c(C)c1NC(=O)c1cc(-c2ccc3c(c2)OCO3)on1
739 | CCOC(=O)c1ccc(N2C(=O)c3n[nH]c(-c4cccs4)c3C2c2ccc(OCC)cc2)cc1 (stereo not drawn)
< 1 | Cc1ccc(C(=O)N2CCc3c(nc4cc(-c5ccccc5)[nH]n4c3=O)C2)cn1
< 1 | O=C(NCCc1ccccn1)C1CC(=O)N(c2n[nH]c3cc(Br)ccc23)C1 (stereo not drawn)
> 1000 | Nc1ncnc2c1c(-c1cnc3[nH]ccc3c1)nn2C1CCCC1
776 | CCCSc1nc(N[C@@H]2C[C@H]2c2ccc(F)c(F)c2)c2nnn([C@@H]3C[C@H](OCCO)[C@@H](O)[C@H]3O)c2n1
> 1000 | O=C1CCCC2=C1C(c1[nH]ncc1Cl)N=C(Nc1nc3cccc(Cl)c3o1)N2 (stereo not drawn)
938 | Nc1nc(N)c2c(OCC3CCN(Cc4ccccc4F)CC3)cccc2n1
< 1 | Cc1ccc(-c2cc(C(=O)Nc3ccc(-n4cncn4)cc3)c3ccccc3n2)cc1C
459 | O=C(Nc1nc(-c2ccccc2)cs1)c1ccncc1NS(=O)(=O)c1c(F)cc(F)cc1F
39.4 | c1ccc(-c2cc(Nc3nc(-c4ccncc4)nc4ccccc34)n[nH]2)cc1

Second part, the compound before the results:

SMILES | Papp [×10⁻⁶ cm/s]
O=C(Nc1cncc(Cc2ccccc2)c1)c1ccc(-c2cccc([N+](=O)[O-])c2)o1 | > 1000
c1cc(-c2cc(-c3ccncc3)c3cncn3c2)c2[nH]ncc2c1 | 25.1
COc1cccc(C(=O)Nc2nnc(S(=O)(=O)N3CCOCC3)s2)c1 | 19.2
O=C(c1ccc2ccccc2c1)N1CCN(c2ccc(O)cc2)CC1 | 527
COc1cccc(CNc2ccc([S+](=O)([O-])Nc3cc4ccccc4s3)cc2)c1O | 888
Cc1ccc(NS(=O)(=O)c2cccc(C(=O)O)c2)cc1S(=O)(=O)N1CCOCC1 | 23.4
O=C(C=Cc1cccnc1)NCCCCC1CCN(C(=O)c2ccccc2)CC1 | 130
O=C1CCCc2cc(S(=O)(=O)Nc3cnccc3C(=O)Nc3nc(-c4ccccc4)cs3)ccc2N1 | 1.7
COc1ccc(-n2nc(C3CCN(C(=O)c4ccccc4)CC3)[nH]c2=O)cc1 | 331
CN(C)c1cccc(-c2ccnc(N3CCC(C(N)=O)CC3)n2)c1 | 333
Cc1ccc(NC(=O)c2c(N3CCCC3=O)c3cc(C)ccc3n2C)c(C)c1 | > 1000
COc1ccc(-c2nc3ccccc3c(=O)n2Cc2ccco2)cc1COc1ccc(NC(C)=O)cc1 | 8.72
CS(=O)(=O)c1ccc(-c2csc(N3CCC(C(N)=O)CC3)n2)cc1 | 74
Cc1cccc(-n2c(C)cc(C=C(C#N)C#N)c2C)c1 | 43
COc1cc(NC(=O)c2cc(-c3ccccc3O)no2)cc(OC)c1OC | 680
O=[N+]([O-])c1ccc(/C=N/n2c(CO)nc3ccccc32)s1 | 269
NC(=O)C1CCN(c2cc(-c3ccc4c(c3)OCCCO4)ncn2)CC1 | 37
O=C(Nc1nc(-c2ccccc2)cs1)c1ccncc1NS(=O)(=O)c1ccc2ccccc2c1 | > 1000

SMILES | Papp [×10⁻⁶ cm/s]
NC(=O)C1CCN(c2nc(-c3ccc4c(c3)OCCO4)cs2)CC1 | 669
OCc1cccc(-c2cc(-c3cccnc3)c3cncn3c2)c1 | 76
CC(C)Oc1ccc(-c2ccc(=O)n(CC(=O)NCCc3ccccc3)n2)cc1 | > 1000
C[C@@H](NC(=O)c1ncnc(N)c1Cl)c1ncc(C(=O)Nc2cc(C(F)(F)F)c(Cl)cn2)s1 | > 1000
O=C(Nc1ccc(S(=O)(=O)Nc2nccs2)cc1)c1cccc2ccccc12 | 11.9
CC(=O)NC1CCN(c2nc(-c3ccc(Br)cc3)cs2)CC1 | 789
O=c1[nH]nc(Sc2ncc([N+](=O)[O-])s2)n1-c1ccc2c(c1)OCCO2 | 137
Cc1ccc(S(=O)(=O)Nc2cnccc2C(=O)Nc2cccc3ccccc23)cc1 | 288
Cc1cc(C)nc(NC(=S)N2CCN(c3ccncc3)CC2)c1 | 450
O=C(C1CCN(c2nc(-c3ccc(Br)cc3)cs2)CC1)N1CCOCC1 | 236
O=C(c1ccncc1)N1CCC2(CCCN(C(c3ccccc3)c3ccccc3)C2)CC1 | > 1000
COc1cccc(CNc2ccc(S(=O)(=O)Nc3nccs3)cc2)c1O | 35.8
Cc1cc(NS(=O)(=O)c2ccc(NC(=O)Cc3ccc(Cl)c(Cl)c3)cc2)n(C)n1 | 31.7
NC(=O)C1CCN(c2nc(-c3cccc4sc5ccccc5c34)cs2)CC1 | 364
CS(=O)(=O)c1ccccc1-c1csc(N2CCC(C(N)=O)CC2)n1 | 11.9
O=C(c1cnc(N2CCCCC2)c2ccccc12)N1CCN(c2ccc(Cl)cc2)CC1 | > 1000
Cc1cc(-c2nnc3n2CCCCC3)c(C)n1-c1ccccc1 | 581
